Tests used:
Details in all cases: 72 h
Caco-2 [1] = assay: relative viability EC50 (midpoint between 100% and the lowest measured viability); higher = less toxic
HepG2 [2] = assay: as above
U2OS [3] = assay: as above
Calu-3 [4] = assay: as above
Vero E6 [5] = assay: as above
Caco-2 [6] = assay: drug sensitivity score (DSS) for viability; higher = more toxic; extreme values may be limits of the assay
HepG2 [7] = assay: as above
U2OS [8] = assay: as above
Calu-3 [9] = assay: as above
Vero E6 [10] = assay: as above
Caco-2 [11] = assay: cell viability relative to DMSO; higher = less toxic
HepG2 [12] = assay: as above
U2OS [13] = assay: as above
Calu-3 [14] = assay: as above
Vero E6 [15] = assay: as above

SMILES	relative viability EC50 (Caco-2 [1]) [µM]	relative viability EC50 (HepG2 [2]) [µM]	relative viability EC50 (U2OS [3]) [µM]	relative viability EC50 (Calu-3 [4]) [µM]	relative viability EC50 (Vero E6 [5]) [µM]	drug sensitivity score (Caco-2 [6])	drug sensitivity score (HepG2 [7])	drug sensitivity score (U2OS [8])	drug sensitivity score (Calu-3 [9])	drug sensitivity score (Vero E6 [10])	cell viability (Caco-2 [11]; 1 nM) [%]	cell viability (Caco-2 [11]; 10 nM) [%]	cell viability (Caco-2 [11]; 100 nM) [%]	cell viability (Caco-2 [11]; 1000 nM) [%]	cell viability (Caco-2 [11]; 10000 nM) [%]	cell viability (HepG2 [12]; 1 nM) [%]	cell viability (HepG2 [12]; 10 nM) [%]	cell viability (HepG2 [12]; 100 nM) [%]	cell viability (HepG2 [12]; 1000 nM) [%]	cell viability (HepG2 [12]; 10000 nM) [%]	cell viability (U2OS [13]; 1 nM) [%]	cell viability (U2OS [13]; 10 nM) [%]	cell viability (U2OS [13]; 100 nM) [%]	cell viability (U2OS [13]; 1000 nM) [%]	cell viability (U2OS [13]; 10000 nM) [%]	cell viability (Calu-3 [14]; 1 nM) [%]	cell viability (Calu-3 [14]; 10 nM) [%]	cell viability (Calu-3 [14]; 100 nM) [%]	cell viability (Calu-3 [14]; 1000 nM) [%]	cell viability (Calu-3 [14]; 10000 nM) [%]	cell viability (Vero E6 [15]; 1 nM) [%]	cell viability (Vero E6 [15]; 10 nM) [%]	cell viability (Vero E6 [15]; 100 nM) [%]	cell viability (Vero E6 [15]; 1000 nM) [%]	cell viability (Vero E6 [15]; 10000 nM) [%]
C[C@](N)(Cc1ccc(O)cc1)C(=O)O [metirosine]	> 10	> 10	> 10	> 10	> 10	0	0	0	0	0	97.7	96.9	93.5	88.1	94.8	86.6	97.3	96.4	97.1	91.4	101	96	101	96	99.5	112	113	106	97.3	99.5	95.8	94.8	95.1	95.9	96.4
CC(C)Cc1ccc([C@@H](C)C(=O)NCCO)cc1 (racemic) [mabuprofen]	> 10	> 10	> 10	> 10	> 10	0	0	0	0	0	102	96.4	104	94	96.1	92.7	105	90.8	95.3	96.4	105	98.9	103	100	100	106	103	105	99.4	117	102	100	101	97.9	94.7
COc1ccc(C(=O)NCc2ccc(OCCN(C)C)cc2)cc1OC [itopride]	> 10	> 10	> 10	> 10	> 10	0	0	0	0	0	99	96.5	108	100	89.5	97.4	96.2	87.2	90.3	107	102	101	99.1	103	95.1	102	103	97.1	103	91.2	99.9	102	99.8	101	96.7
O=C(Nc1cc2cc[nH]c2cn1)c1ccccc1 [OAC1]	> 10	> 10	> 10	> 10	> 10	2.3	0.3	1	0	0.2	102	97	100	85.6	77.3	104	116	101	113	80.8	105	95.8	101	93.3	83.3	99.8	96.8	103	102	89.3	97.1	99.7	94.3	99.1	86.2
CN1C(C(=O)Nc2ccccn2)=C(O)c2sccc2S1(=O)=O [tenoxicam]	> 10	> 10	> 10	> 10	> 10	0	0	0	0	0	98	102	96.2	98.6	92.6	94.9	96	96.5	88.5	101	93.3	94.4	93.1	97	93.1	99.3	102	90.7	106	98.2	98.5	96.2	103	98.7	99.8
Cc1[nH]c2ccc(Cl)cc2c1C1=CCNCC1	> 10	> 10	> 10	> 10	> 10	0.8	0	0	0	0	95.9	102	99.4	97	81.7	93.2	94.7	97.1	95.3	89.9	96.5	103	95.4	96.5	88.9	109	106	99.8	103	91.5	98.1	96.4	99.6	96	91.7
C[C@H]1C[C@@H]2[C@H]([C@@H](O)C[C@@]3(C)[C@H]2CC[C@]3(O)C(=O)COC(=O)CCC(=O)O)[C@@]2(C)C=CC(=O)C=C12 [methylprednisolone-sodium-succinate]	> 10	> 10	> 10	> 10	> 10	0	0	0	0	0	104	94.6	98.3	99.6	92.5	98.2	101	89.6	103	91.2	99.2	93.8	95	92.5	93.9	108	99	88.8	91.2	122	100	103	101	96	98.2
